The values that follow come from patent publication US20250248924A1, “COMPOUNDS FROM FRUIT SEED EXTRACTS FOR MELANIN REDUCTION IN SKIN” (priority 2024, published 2025).

One data set in a line: Solubility in solvents. The format is physicochemical. The text has this: A 2.5 gram sample of a red raspberry seed extract in a dry powder form was split into two fractions, one combined 1.25 grams of the dry extract with 11.25 grams of water to create a 10% aqueous solution of the extract. […] Combining 1.25 grams of the dry extract with about 11.25 grams of isopropyl alcohol (91%) produced an about 10% alcohol solution.
Using pure water was explored in extraction experiments with cranberry seed powder. The advantages of using water are essentially zero cost and toxicity. It is also a very polar solvent and will not extract any residual oils (which are very non-polar compounds) from the seed powders. The limitations of using water are that it gives quite low yields in extractions at room temperature and only dissolved the most polar compounds from the seed powders, leaving most of the medium polarity materials behind. It is possible that this could be improved by heating. […] Simply filtering the mixture through inexpensive filter paper by gravity or mild vacuum will be unsuccessful. One solution that worked was mixing in filtering media (diatomaceous earth) and then vacuum filtering through a bed of the same filtering medium. To completely clarify the mixture, an additional treatment with activated carbon and further vacuum filtering through a bed of diatomaceous earth was effective. Given the limitations of water extraction, it was not used extensively. […]

Data set [1] can be described thus: Solubility in the enzyme assay. The format is physicochemical. The settings on record: aqueous pH 7.00 phosphate buffer with DMSO stock.

Consider `O=c1oc2c(O)c(O)cc3c(=O)oc4c(O)c(O)cc1c4c23` [ellagic acid], for which the figures for the solubility in water result in the data set “Solubility in solvents” (high pH) and in the data set “Solubility in solvents” (neutral pH) were “very water soluble” and “only slightly soluble”, respectively. The “solubility in the enzyme assay” value in data set [1] is on record as “highly insoluble”.
